Experimental data taken from paper PMC10108740 (Journal of Medicinal Chemistry, 2023).
Like-named read-outs stand apart in the source and are kept apart here.

How the values were obtained:
[1] = system: SARS-CoV-2 WA1 (USA-WA1/2020); assay: Antiviral immunofluorescence assay, SARS-CoV-2 WA1 in Calu-3 cells; format: cell-based; details: for EC50 / EC90: immunofluorescence, 44 hpi, mean ± SD
[2] = system: SARS-CoV-2 B.1.1.7 (Alpha); assay: microbe, parasite or virus in culture; format: cell-based; details: Severe acute respiratory syndrome coronavirus 2, Calu-3
[3] = system: SARS-CoV-2 B.1.351 (Beta); assay: microbe, parasite or virus in culture; format: cell-based; details: Severe acute respiratory syndrome coronavirus 2, Calu-3
SARS-CoV-2 P.1 (Gamma) = assay: microbe, parasite or virus in culture; format: cell-based; details: Severe acute respiratory syndrome coronavirus 2, Calu-3
[4] = system: SARS-CoV-2 B.1.617.2 (Delta); assay: microbe, parasite or virus in culture; format: cell-based; details: Severe acute respiratory syndrome coronavirus 2, Calu-3
[5] = system: SARS-CoV-2 BA.1 (Omicron); assay: microbe, parasite or virus in culture; format: cell-based; details: Severe acute respiratory syndrome coronavirus 2, Calu-3
SARS-CoV-2 (WA-1) [6] = assay: Antiviral immunofluorescence assay, SARS-CoV-2 WA1 in Huh7.5 cells; format: cell-based; details: WA-1, Huh7.5 cells, immunofluorescence, 48 hpi; for EC50: read-out: EC50; for EC90: read-out: EC90
SARS-CoV-2 (WA-1) [7] = assay: Antiviral immunofluorescence assay, SARS-CoV-2 WA1 in Vero-TMPRSS2 cells; format: cell-based
SARS-CoV-2 (WA-1) [8] = assay: Antiviral immunofluorescence assay, SARS-CoV-2 WA1 in human pluripotent stem cell-derived lung cells; format: cell-based; details: 24 hpi
Calu-3 cells [9] = details: human, 44 h
SARS-CoV-2 (WA-1) [10] = system: SARS-CoV-2 (WA-1); parameters: method as in PMID 34310217; details: Huh7.5 cells; read-out: EC50, inhibition of SARS-CoV-2 replication; cited from earlier work
in vitro [11] = details: human
in vitro [12] = details: chlorocebus aethiops
Description: (§1) Cells were seeded as per SARS-CoV-2 infection studies in opaque walled 96-well cell culture plates and incubated overnight for Huh7.5 and Vero-TMPRSS2 cells and for an additional 24h for Calu-3 cells. Compounds or controls were added at the indicated concentrations. Cells were incubated for 48h for Huh7.5 cells, 40–44h for Calu-3 cells, or 30–32h for Vero-TMPRSS2 cells at 37 °C and 5% CO2, an equal volume of CellTiter-Glo reagent (Cat. #G7570, Promega) or CellTiter-Glo 2.0 reagent (Cat. #G9241, Promega) was added and mixed, and luminescence was recorded on a Veritas Microplate Luminometer (Turner BioSystems) according to manufacturer recommendations. Percent viability was calculated compared to DMSO controls, and CC50 values were calculated using Prism 9.
(§2) Calu-3 cells were treated for 44h (A), Huh7.5 cells were treated for 48h (B), and Vero-
(§3) TMPRSS2 cells were treated for 38h (C) as in infection assays for each cell type. Cell viability
(§4) was measured by CellTiter-Glo assay and reported as % cell viability relative to DMSO controls.
(§5) Best fit curves calculated in Graphpad Prism 9 were used
(§6) to compute cytotoxic concentration 50% (CC50) values in Tables 1-3.

in vitro [13] = details: human; remark: listed apart in the source
[14] = hamster, in vivo; cited from earlier work
[15] = system: SARS-CoV-2 WA1 (USA-WA1/2020); parameters: method as in Schooley et al.[24]; details: Calu-3 cells, ref Schooley et al.[24]; cited from earlier work
Calu-3 cells [16] = details: cited from earlier work
Calu-3 cells [17] = assay: Cell viability assay (CellTiter-Glo), Calu-3 cells; details: uninfected Calu-3 cells, 44h
Huh7.5 cells = assay: Cell viability assay (CellTiter-Glo), Huh7.5 cells; details: uninfected Huh7.5 cells, 48h
Vero-TMPRSS2 cells = assay: Cell viability assay (CellTiter-Glo), Vero-TMPRSS2 cells; details: uninfected Vero-TMPRSS2 cells, 38h
Description: as §1, §2, §3, §4, §5, §6

[18] = system: human pluripotent stem cell-derived lung cells; assay: Cytotoxicity by relative number of nuclei, human pluripotent stem cell-derived lung cells; details: PSC-lung cells, relative number of nuclei (IF) vs vehicle-treated wells
[19] = WA1, Calu-3 cells, read-out: EC50
[20] = Severe acute respiratory syndrome coronavirus 2
[21] = Severe acute respiratory syndrome coronavirus 2, WA-1, PSC-lung cells (ALDA 31616 and H9)
[22] = WA-1, Vero-TMPRSS2 cells, immunofluorescence, 38 hpi
[23] = WA-1, Vero-TMPRSS2 cells, immunofluorescence, 38 hpi, read-out: EC50
[24] = WA-1, PSC-lung cells (ALDA 31616 and H9)

## CCCCCCCCCCCCCCCCCCOC[C@H](COP(=O)(O)OC[C@H]1O[C@@](C#N)(c2ccc3c(N)ncnn23)[C@H](O)[C@@H]1O)OCc1ccccc1 [Compound V2043, 1-O-octadecyl-2-O-benzyl-sn-glyceryl-phospho-RVn]
[1]; Severe acute respiratory syndrome coronavirus 2, Calu-3, WA1, Calu-3 cells
  EC50: 138 nM
[1]; Severe acute respiratory syndrome coronavirus 2, WA1, Calu-3 cells
  EC90: 323 ± 157 nM
[1]; [19]
  EC50: 136 ± 56 nM
[2]
  EC50: 146 ± 95 nM
  EC90: 517 ± 169 nM
[3]
  EC50: 146 ± 104 nM
  EC90: 645 ± 459 nM
SARS-CoV-2 P.1 (Gamma)
  EC50: 167 ± 84 nM
  EC90: 362 ± 42 nM
[4]
  EC50: 85 ± 24 nM
  EC90: 484 ± 457 nM
[5]
  EC50: 44 ± 12 nM
  EC90: 359 ± 447 nM
SARS-CoV-2 (WA-1) [6]; [20]
  EC50: 140 ± 63 nM
  EC90: 424 ± 267 nM
SARS-CoV-2 (WA-1) [7]; Severe acute respiratory syndrome coronavirus 2, Vero/TMPRSS2
  EC50: 216 ± 38 nM
SARS-CoV-2 (WA-1) [7]; Severe acute respiratory syndrome coronavirus 2, WA-1, Vero-TMPRSS2 cells, immunofluorescence, 38 hpi
  EC90: 403 ± 128 nM
SARS-CoV-2 (WA-1) [8]; [21]
  EC50: 382 ± 205 nM
  EC90: 736 ± 267 nM
Calu-3 cells [9]
  CC50: 58300 nM
SARS-CoV-2 (WA-1) [10]
  EC50: 138 nM
In vitro [11]
  CC50 at 44 h: 58300 nM
In vitro [12]
  CC50 at 38 h: 97900 nM
In vitro [13]
  CC50 at 24 h: > 20000 nM
[14]
  oral bioavailability: orally bioavailable

## CCC(CC)COC(=O)[C@H](C)N[P@](=O)(OC[C@H]1O[C@@](C#N)(c2ccc3c(N)ncnn23)[C@H](O)[C@@H]1O)Oc1ccccc1 [RDV, remdesivir]
[15]
  EC50: 230 nM
  EC90: 310 nM
Calu-3 cells [16]; Calu-3 cells, ref Schooley et al.[24]
  CC50: > 100000 nM

## N#C[C@@]1(c2ccc3c(N)ncnn23)O[C@H](CO)[C@@H](O)[C@H]1O [RVn, GS-441524]
Calu-3 cells [16]
  CC50: > 100000 nM

## ((2R,3S,4R,5R)-5-(4-Aminopyrrolo[2,1-f][1,2,4]triazin-7-yl)-5-cyano-3,4-dihydroxytetrahydrofuran-2-yl)methyl ((R)-2-((3-fluoro-4-methoxybenzyl)oxy)-7-(tetradec-5-en-1-yloxy)heptyl) hydrogen phosphate [Compound 10g]
[1]; 3-fluoro-4-methoxybenzyl at sn-2 versus unsubstituted benzyl
  fold better potency: 2–3 fold
[1]; Calu-3 cells, based on EC50
  fold more active than RDV: 3.3 fold
[1]; WA1, Calu-3 cells
  EC90: 149 ± 117 nM
[1]; [19]
  EC50: 70 ± 3 nM
SARS-CoV-2 (WA-1) [6]
  EC50: 54 ± 16 nM
  EC90: 95 ± 27 nM
SARS-CoV-2 (WA-1) [7]; [22]
  EC90: 554 ± 54 nM
SARS-CoV-2 (WA-1) [7]; [23]
  EC50: 300 ± 38 nM
SARS-CoV-2 (WA-1) [8]; [24]
  EC50: 82 ± 13 nM
  EC90: 175 ± 16 nM
Calu-3 cells [17]
  CC50: 58700 nM
Huh7.5 cells
  CC50: > 100000 nM
Vero-TMPRSS2 cells
  CC50: > 100000 nM
[18]
  CC50: > 20000 nM

## ((2R,3S,4R,5R)-5-(4-Aminopyrrolo[2,1-f][1,2,4]triazin-7-yl)-5-cyano-3,4-dihydroxytetrahydrofuran-2-yl)methyl ((R)-2-(benzyloxy)-7-(tetradec-5-en-1-yloxy)heptyl) hydrogen phosphate [Compound 10a]
[1]; WA1, Calu-3 cells
  EC90: 324 ± 127 nM
[1]; [19]
  EC50: 193 ± 58 nM
SARS-CoV-2 (WA-1) [6]
  EC50: 109 ± 55 nM
  EC90: 224 ± 100 nM
SARS-CoV-2 (WA-1) [7]; [22]
  EC90: 570 ± 54 nM
SARS-CoV-2 (WA-1) [7]; [23]
  EC50: 293 ± 20 nM
SARS-CoV-2 (WA-1) [8]; [24]
  EC50: 267 ± 118 nM
  EC90: 555 ± 250 nM
Calu-3 cells [17]
  CC50: 79200 nM
Huh7.5 cells
  CC50: > 100000 nM
Vero-TMPRSS2 cells
  CC50: > 100000 nM
[18]
  CC50: > 20000 nM
